Test results: patent US6001809A, “Inhibitors of leukocyte adhesion” (Elan Pharmaceuticals, Inc., priority 1995, dated 1999)
Bridge positions count the residues as written; N and C are the ends. Square brackets hold non-standard residues; d marks the D form. Ends that are not written are not given here. Peptide text beside a SMILES is read from it. I, II: the chains in the order shown.

Biological target: T1, VLA-4 integrin (Homo sapiens, UniProt P05556+P13612)
T1 construct: endogenous in cells; host or cells: Jurkat cells
Experiment: Adhesion of Jurkat cells to peptide-BSA conjugates
Type: cell-based
Conditions: peptide conjugated to carrier protein, coated on plastic at 3 μg/mL; FIG. 1
Description: The peptide used in this example was synthesized based on the sequence of the anti-α4 integrin antibody 21/6 (CGGEGYYGNYGVYA, SEQ ID No. 1). In this example the peptide was conjugated to a large carrier protein via the linker region that was synthesized as part of the peptide itself (in italics). The conjugated peptide was then coated onto plastic, and the ability of the conjugate to support cell adhesion was tested. This method is based on a report by Wayner and Kovach^40.
As a positive control, the fibronectin peptide described by Wayner was synthesized, conjugated to carrier protein, and tested for cell adhesion in parallel with SEQ ID NO. 1 (CGGEILDVPST, SEQ ID No. 2). Both peptide conjugates were exposed to the plastic at a concentration of 3 μg/mL. […] Adhesion was not affected by an antibody against β2 integrin (IOT18), a distinct cell adhesion molecule that is also expressed on the surface of Jurkat cells. Thus, like peptide SEQ ID NO. 2, peptide SEQ ID NO. 1 interacts with Jurkat in an α4 integrin-specific fashion.

T1 sequence (P13612 34-1032): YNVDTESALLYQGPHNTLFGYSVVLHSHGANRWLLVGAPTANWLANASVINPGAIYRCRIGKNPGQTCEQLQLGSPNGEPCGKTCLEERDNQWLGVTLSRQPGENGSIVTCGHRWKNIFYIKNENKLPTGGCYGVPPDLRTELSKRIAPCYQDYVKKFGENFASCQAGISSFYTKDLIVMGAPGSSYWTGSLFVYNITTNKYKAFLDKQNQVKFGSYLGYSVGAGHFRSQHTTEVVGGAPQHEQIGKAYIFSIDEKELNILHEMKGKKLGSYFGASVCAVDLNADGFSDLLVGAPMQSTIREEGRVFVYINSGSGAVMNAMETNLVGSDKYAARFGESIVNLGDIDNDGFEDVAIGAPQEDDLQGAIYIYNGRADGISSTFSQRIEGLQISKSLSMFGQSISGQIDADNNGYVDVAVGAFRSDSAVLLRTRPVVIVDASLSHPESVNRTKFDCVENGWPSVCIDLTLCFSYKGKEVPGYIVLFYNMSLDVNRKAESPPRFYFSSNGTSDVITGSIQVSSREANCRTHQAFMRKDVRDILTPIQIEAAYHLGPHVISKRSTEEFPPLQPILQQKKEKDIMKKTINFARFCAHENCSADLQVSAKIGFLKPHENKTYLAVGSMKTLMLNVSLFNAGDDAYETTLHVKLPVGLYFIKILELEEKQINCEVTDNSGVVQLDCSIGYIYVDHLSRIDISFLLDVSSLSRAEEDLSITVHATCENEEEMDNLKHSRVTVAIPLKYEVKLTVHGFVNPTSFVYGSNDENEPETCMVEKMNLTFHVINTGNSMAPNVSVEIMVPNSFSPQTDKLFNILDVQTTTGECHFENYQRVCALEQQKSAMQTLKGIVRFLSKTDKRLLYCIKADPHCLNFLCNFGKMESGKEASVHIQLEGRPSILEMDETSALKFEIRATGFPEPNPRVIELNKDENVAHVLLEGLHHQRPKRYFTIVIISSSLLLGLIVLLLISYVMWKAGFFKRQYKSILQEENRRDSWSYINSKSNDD
T1 sequence (P05556 21-798): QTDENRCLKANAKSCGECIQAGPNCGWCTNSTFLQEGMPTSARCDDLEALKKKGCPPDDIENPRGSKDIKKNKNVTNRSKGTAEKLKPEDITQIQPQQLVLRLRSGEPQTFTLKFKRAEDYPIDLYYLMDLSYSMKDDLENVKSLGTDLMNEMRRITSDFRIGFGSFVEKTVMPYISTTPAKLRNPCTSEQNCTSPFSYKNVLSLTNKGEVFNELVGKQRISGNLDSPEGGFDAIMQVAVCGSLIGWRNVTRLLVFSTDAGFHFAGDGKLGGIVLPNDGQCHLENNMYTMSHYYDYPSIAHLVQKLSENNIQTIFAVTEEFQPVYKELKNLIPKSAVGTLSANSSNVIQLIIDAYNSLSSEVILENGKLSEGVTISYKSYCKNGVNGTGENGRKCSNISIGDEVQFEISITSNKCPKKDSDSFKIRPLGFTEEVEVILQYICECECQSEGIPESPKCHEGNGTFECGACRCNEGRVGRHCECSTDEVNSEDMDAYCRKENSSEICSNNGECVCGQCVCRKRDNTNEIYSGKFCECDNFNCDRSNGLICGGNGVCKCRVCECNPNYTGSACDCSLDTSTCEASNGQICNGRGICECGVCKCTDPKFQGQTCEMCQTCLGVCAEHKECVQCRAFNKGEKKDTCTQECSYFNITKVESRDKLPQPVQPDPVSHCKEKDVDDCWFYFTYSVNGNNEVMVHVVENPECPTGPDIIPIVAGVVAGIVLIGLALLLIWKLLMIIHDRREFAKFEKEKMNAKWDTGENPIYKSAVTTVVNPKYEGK

Row | Molecule | adhesion of Jurkat cells to immobilized peptide conjugate
1 | CGGEGYYGNYGVYA [SEQ ID No. 1, peptide from anti-α4 integrin antibody 21/6 with CGG linker, conjugated to carrier protein] | bound equally well
2 | CGGEILDVPST [SEQ ID No. 2, fibronectin peptide described by Wayner, positive control, conjugated to carrier protein, reference compound] | bound equally well

Biological target: T2, VLA-4 integrin interaction with VCAM-1 (Homo sapiens, UniProt P05556+P13612)
T2 construct: endogenous in cells; host or cells: Jurkat cells (VLA-4)
Experiment: Jurkat interaction with soluble VCAM-1 (sVCAM-1-IgG), FACS assay
Type: cell-based
Conditions: not given
From the text: VCAM-1 was expressed as a soluble fusion protein. The construct expressed the seven extracellular domains of VCAM-1 on the N-terminus, and the human IgG1 heavy chain constant region on the C-terminus. Interaction of the soluble construct with Jurkat cells was monitored by standard FACS analysis, using a fluorescently labeled antibody directed against the construct's human IgG tail as a marker.
The activity of VLA-4 can be regulated. 15/7 is a monoclonal antibody that recognizes an activated conformation of VLA-4 and locks the molecule in the active state, thereby enhancing VLA-4-mediated cell adhesion.
Peptides of different length, and with various amino acid substitutions were synthesized based on the sequence of the CDR3 region of the antibody 21/6 (EGYYGNYGVYA) (SEQ ID No. 4). The peptides were then tested for their ability to inhibit Jurkat interaction with sVCAM-1-IgG in the FACS assay described in Example 6. IC50 values were determined for each peptide using this assay.

T2 sequence (P13612 34-1032): as the sequence (P13612 34-1032) above
T2 sequence (P05556 21-798): as the sequence (P05556 21-798) above

Row | Molecule | IC50 [µM]
3 | Ac-EGYYGNYGVAA [SEQ ID No. 12, [Ac]EGYYGNYGVAA] | ≤ 50
4 | NC(=O)C[C@@H]1NC(=O)[C@H](CCC(=O)O)NC(=O)[C@H](Cc2ccc(O)cc2)NC(=O)[C@H](Cc2ccc(O)cc2)NC(=O)CSC[C@@H](C(=O)O)NC1=O [SEQ ID No. 60, [Ac]YYENC] ({CH2CO}-YYENC-OH; thioether N-5) | ≤ 50
5 | NC(=O)C[C@@H]1NC(=O)[C@H](Cc2ccc(O)cc2)NC(=O)CNC(=O)[C@H](Cc2ccc(O)cc2)NC(=O)[C@H](Cc2ccc(O)cc2)NC(=O)CSC[C@@H](C(=O)O)NC1=O [SEQ ID No. 62, [Ac]YYGYNC] ({CH2CO}-YYGYNC-OH; thioether N-6) | ≤ 50
6 | NC(=O)CC[C@@H]1NC(=O)CNC(=O)[C@H](Cc2ccc(O)cc2)NC(=O)[C@H](Cc2ccc(O)cc2)NC(=O)CSC[C@@H](C(=O)O)NC1=O [SEQ ID No. 52, [Ac]YYGQC] ({CH2CO}-YYGQC-OH; thioether N-5) | ≤ 50
7 | C[C@H](N)C(=O)N[C@H](Cc1ccc(O)cc1)C(=O)N[C@@H](Cc1ccc(O)cc1)C(=O)N[C@@H](CCC(=O)O)C(=O)N[C@@H](CC(N)=O)C(=O)N[C@@H](CSSC[C@H](NC(=O)[C@H](CC(N)=O)NC(=O)[C@H](CCC(=O)O)NC(=O)[C@H](Cc1ccc(O)cc1)NC(=O)[C@@H](Cc1ccc(O)cc1)NC(=O)[C@H](C)N)C(=O)O)C(=O)O [SEQ ID No. 154, AyYENC AyYENC] (I: H-A[dY]YENC-OH / II: H-A[dY]YENC-OH; disulfide I:6-II:6) | ≤ 50
8 | C[C@H](N)C(=O)N[C@@H](Cc1ccc(O)cc1)C(=O)N[C@@H](Cc1ccc(O)cc1)C(=O)N[C@@H](CCC(=O)O)C(=O)N[C@@H](CC(N)=O)C(=O)N[C@@H](CSSC[C@H](NC(=O)[C@H](CC(N)=O)NC(=O)[C@H](CCC(=O)O)NC(=O)[C@H](Cc1ccc(O)cc1)NC(=O)[C@H](Cc1ccc(O)cc1)NC(=O)[C@H](C)N)C(=O)O)C(=O)O [SEQ ID No. 123, AYYENC AYYENC] (I: H-AYYENC-OH / II: H-AYYENC-OH; disulfide I:6-II:6) | ≤ 50
9 | NC(=O)C[C@@H]1NC(=O)CNC(=O)[C@H](Cc2ccccc2)NC(=O)[C@@H](N)CSSC[C@@H](C(=O)O)NC(=O)[C@H](CO)NC(=O)[C@H](Cc2c[nH]cn2)NC(=O)[C@H](CCC(=O)O)NC1=O [SEQ ID No. 32, CFGNEHSC] (H-CFGNEHSC-OH; disulfide 1-8) | ≤ 50
10 | STLTMNPVSF [SEQ ID No. 40, STLTMNPVSF] | ≤ 50
11 | C[C@H](N)C(=O)N[C@@H](Cc1ccc(O)cc1)C(=O)N[C@@H](Cc1ccc(O)cc1)C(=O)NCC(=O)N[C@@H](Cc1ccc(O)cc1)C(=O)N[C@@H](CC(N)=O)C(=O)N[C@@H](CSSC[C@H](NC(=O)[C@H](CC(N)=O)NC(=O)[C@H](Cc1ccc(O)cc1)NC(=O)CNC(=O)[C@H](Cc1ccc(O)cc1)NC(=O)[C@H](Cc1ccc(O)cc1)NC(=O)[C@H](C)N)C(=O)O)C(=O)O [SEQ ID No. 144, AYYGYNC AYYGYNC] (I: H-AYYGYNC-OH / II: H-AYYGYNC-OH; disulfide I:7-II:7) | ≤ 50
12 | C[C@H](N)C(=O)N[C@H](Cc1ccc(O)cc1)C(=O)N[C@@H](Cc1ccc(O)cc1)C(=O)N[C@@H](CCC(=O)O)C(=O)N[C@@H](C)C(=O)N[C@@H](CS)C(=O)O [SEQ ID No. 133, AyYEAC] (H-A[dY]YEAC-OH) | ≤ 50
13 | C[C@H](N)C(=O)N[C@@H](Cc1ccc(O)cc1)C(=O)N[C@@H](Cc1ccccc1)C(=O)NCC(=O)N1CCC[C@H]1C(=O)N[C@@H](CSSC[C@H](NC(=O)[C@@H]1CCCN1C(=O)CNC(=O)[C@H](Cc1ccccc1)NC(=O)[C@H](Cc1ccc(O)cc1)NC(=O)[C@H](C)N)C(=O)O)C(=O)O [SEQ ID No. 71, AYFGPC AYFGPC] (I: H-AYFGPC-OH / II: H-AYFGPC-OH; disulfide I:6-II:6) | ≤ 50
14 | AYFGPC [SEQ ID No. 142, AYFGPC] | ≤ 50
15 | Ac-EGYYGNYGAYA [SEQ ID No. 42, [Ac]EGYYGNYGAYA] | ≤ 50
16 | C[C@H](N)C(=O)N[C@H](Cc1ccc(O)cc1)C(=O)N[C@@H](Cc1ccc(O)cc1)C(=O)NCC(=O)N[C@@H](C)C(=O)N[C@@H](CSSC[C@H](NC(=O)[C@H](C)NC(=O)CNC(=O)[C@H](Cc1ccc(O)cc1)NC(=O)[C@@H](Cc1ccc(O)cc1)NC(=O)[C@H](C)N)C(=O)O)C(=O)O [SEQ ID No. 150, AyYGAC AyYGAC] (I: H-A[dY]YGAC-OH / II: H-A[dY]YGAC-OH; disulfide I:6-II:6) | ≤ 50
17 | Ac-EGYYGAYGVYA [SEQ ID No. 9, [Ac]EGYYGAYGVYA] | ≤ 50
18 | Ac-EGYYGNYGAAA [SEQ ID No. 41, [Ac]EGYYGNYGAAA] | ≤ 50
19 | CC(C)C[C@H]1NC(=O)CSC[C@@H](C(=O)O)NC(=O)[C@H](CC(N)=O)NC(=O)CNC(=O)[C@H](Cc2ccccc2)NC1=O [SEQ ID No. 94, [Ac]lFGNC] ({CH2CO}-[dL]FGNC-OH; thioether N-5) | ≤ 50
20 | CC(C)[C@H]1NC(=O)CSC[C@@H](C(=O)O)NC(=O)[C@H](CC(N)=O)NC(=O)CNC(=O)[C@H](Cc2ccccc2)NC1=O [SEQ ID No. 96, [Ac]vFGNC] ({CH2CO}-[dV]FGNC-OH; thioether N-5) | ≤ 50
21 | C[C@H](N)C(=O)N[C@H](Cc1ccc(O)cc1)C(=O)N[C@@H](Cc1ccc(O)cc1)C(=O)N[C@@H](CCC(=O)O)C(=O)N[C@@H](C)C(=O)N[C@@H](CSSC[C@H](NC(=O)[C@H](C)NC(=O)[C@H](CCC(=O)O)NC(=O)[C@H](Cc1ccc(O)cc1)NC(=O)[C@@H](Cc1ccc(O)cc1)NC(=O)[C@H](C)N)C(=O)O)C(=O)O [SEQ ID No. 140, AyYEAC AyYEAC] (I: H-A[dY]YEAC-OH / II: H-A[dY]YEAC-OH; disulfide I:6-II:6) | ≤ 50
22 | NC(=O)C[C@H](NC(=O)[C@H](CCC(=O)O)NC(=O)[C@H](Cc1ccc(O)cc1)NC(=O)[C@H](Cc1ccc(O)cc1)NC(=O)[C@@H](N)CO)C(=O)N[C@@H](CSSC[C@H](NC(=O)[C@H](CC(N)=O)NC(=O)[C@H](CCC(=O)O)NC(=O)[C@H](Cc1ccc(O)cc1)NC(=O)[C@H](Cc1ccc(O)cc1)NC(=O)[C@@H](N)CO)C(=O)O)C(=O)O [SEQ ID No. 125, SYYENC SYYENC] (I: H-SYYENC-OH / II: H-SYYENC-OH; disulfide I:6-II:6) | ≤ 50
23 | Ac-EGYYGNYGVY [SEQ ID No. 22, [Ac]EGYYGNYGVY] | ≤ 50
24 | EGYYGNYGVY [SEQ ID No. 17, EGYYGNYGVY] | ≤ 50
25 | Ac-YYGNYGVYA [SEQ ID No. 45, [Ac]YYGNYGVYA] | ≤ 50
26 | Ac-EGYYGNYGGYA [SEQ ID No. 43, [Ac]EGYYGNYGGYA] | ≤ 50
27 | C[C@@H]1NC(=O)CNC(=O)[C@H](Cc2ccc(O)cc2)NC(=O)[C@H](Cc2ccc(O)cc2)NC(=O)CSC[C@@H](C(=O)O)NC1=O [SEQ ID No. 54, [Ac]YYGAC] ({CH2CO}-YYGAC-OH; thioether N-5) | ≤ 50
28 | SYYENC [SEQ ID No. 124, SYYENC] | ≤ 50
29 | Ac-EGYYGNAGVAA [SEQ ID No. 15, [Ac]EGYYGNAGVAA] | ≤ 50
30 | NC(=O)C[C@@H]1NC(=O)CNC(=O)[C@H](Cc2ccccc2)NC(=O)CNC(=O)[C@@H](N)CSSC[C@@H](C(=O)O)NC(=O)[C@H](Cc2ccc(O)cc2)NC(=O)[C@H](CO)NC(=O)[C@H](Cc2c[nH]cn2)NC(=O)[C@H](CCC(=O)O)NC1=O [SEQ ID No. 31, CGFGNEHSYC] (H-CGFGNEHSYC-OH; disulfide 1-10) | ≤ 50

Same assay, conditions: per Example 6: inhibition of Jurkat interaction with sVCAM-1-IgG, FACS, Mn+2 and 15/7 present; read-out: IC50

Row | Molecule | IC50 [µM]
31 | Ac-EGYYGNYGVYA [SEQ ID No. 4, [Ac]EGYYGNYGVYA] | ≤ 50
32 | CC[C@H](C)[C@@H]1NC(=O)[C@H](CCC(N)=O)NC(=O)[C@H]([C@@H](C)O)NC(=O)[C@H](CCCNC(=N)N)NC(=O)[C@@H](N)CSSC[C@@H](C(=O)O)NC(=O)[C@H](CO)NC(=O)[C@H](CC(=O)O)NC1=O [SEQ ID No. 35, CRTQIDSC] (H-CRTQIDSC-OH; disulfide 1-8) | ≤ 50
